According to patent publication US11535632B2, “Solid forms of an S1P-receptor modulator” (ESCAPE Bio, Inc., priority 2019, dated 2022):
Entries after “also recorded” stand apart in the source; their conditions may differ.

How the values were obtained:
Assay type in all cases: physicochemical
[1] = Variable temperature XRPD; conditions: heated in situ to 150° C. at 10° C./min; new form denoted Form E
Procedure: For variable temperature (VT-XRPD) experiments the samples were prepared and analysed in an Anton Paar chromed sample holder with silicon wafer insert. A heating/cooling rate of 10° C./min was used with a 2 min isothermal hold before the measurement started. The measurement parameters are as per the standard screening data collection method (detailed above). Measurements were taken at the following temperatures: 25° C., 150° C. and 25° C.
Compound 1 Form B was analyzed using the Empyrean XRPD at a temperature of 25° C. The sample was then heated in situ using the variable temperature stage to 150° C. at a ramp rate of 10° C./min and held isothermally for 2 minutes whereupon a second XRPD measurement was made. The sample was then cooled to 25° C. at a ramp rate of 10° C./min held isothermally for 2 minutes whereupon a third XRPD measurement was made.

[2] = Gravimetric vapor sorption (GVS)
Procedure: Sorption isotherms were obtained using a SMS DVS Intrinsic moisture sorption analyzer, controlled by DVS Intrinsic Control software. The sample temperature was maintained at 25° C. by the instrument controls. The humidity was controlled by mixing streams of dry and wet nitrogen, with a total flow rate of 200 ml/min. The relative humidity was measured by a calibrated Rotronic probe (dynamic range of 1.0-100% RH), located near the sample. The weight change, (mass relaxation) of the sample as a function of % RH was constantly monitored by a microbalance (accuracy ±0.005 mg).
Typically, 5-30 mg of sample was placed in a tared mesh stainless steel basket under ambient conditions. The sample was loaded and unloaded at 40% RH and 25° C. (typical room conditions). A moisture sorption isotherm was performed as outlined below (2 scans per complete cycle). The standard isotherm was performed at 25° C. at 10% RH intervals over a 0-90% RH range. Typically, a double cycle (4 scans) was carried out. Data analysis was carried out within Microsoft Excel using the DVS Analysis Suite.

[3] = Hygroscopicity evaluation by DVS at 25° C.
Procedure: Hygroscopicity of Compound 1, Form A and Compound 1, Form B was evaluated by DVS at 25° C.

[4] = Storage for one week at controlled temperature/humidity, XRPD
Procedure: PLM images obtained of the particles show them to be a mixture of laths and larger aggregates typical of an uncontrolled antisolvent crystallization. A peak corresponding to 0.16 molar equivalents of acetic acid is present in the ^1H-NMR spectrum. […] It is evident from the corresponding DSC thermogram that this mass loss coincides with melting of the material (endotherm at 237.7° C.).

Water activity study = experiment: Water activity study
Procedure: About 15 mg of Form A and 15 mg of Form B were added to the saturated solutions of different water activities and equilibrated at 25° C. and 50° C. for 4 days, respectively. The resulting suspensions were filtered, and the solid parts (wet cake) were investigated by XRPD to determine the polymorph.
According to XRPD results, Form B was obtained in methanol/water with water activity (a.w.) ranging from 0.1 to 0.9 at 25° C., as shown in FIGS. 20A-20B. At 50° C., Form B was obtained in methanol/water with a.w. ≥0.2, whereas a mixture of Form A and Form B was obtained in a.w. […] The water activity of the binary solvent system was calculated based on UNIFAC method (UNIQUAC Functional-group Activity Coefficients).

[5] = Room temperature equilibrium solubility in aqueous suspensions; conditions: listed as Compound 1, Form B; for Total drug in solution: room temperature equilibrium, HPLC of supernatant
[6] = Solid state stability study
Text: The two lots of Compound 1 were characterized by HPLC, PLM, XRPD, DSC, TGA, and KF. […] According to the stability study at different conditions, the two forms of compound were practically stable at different humidity for at least 4 weeks, with no XRPD pattern change and no growth of impurities were found.

SMILES: O=C(O)[C@H]1C[C@@H](N2CCc3oc(-c4ccc(OCc5ccc(Cl)cc5)cc4)nc3C2)C1 [Form B, (1s,3s)-3-(2-(4-((4-chlorobenzyl)oxy)phenyl)-6,7-dihydrooxazolo[4,5-c]pyridin-5(4H)-yl)cyclobutane-1-carboxylic acid]
- XRPD after heating [1]: change in Form by XRPD
- XRPD post GVS analysis [2]: Unchanged by XRPD post analysis; also recorded: Sample unchanged by XRPD
- Relative humidity at which the monohydrate is stable ([2]; readily rehydrates after water loss): > 20 % RH
- DVS Desorp. (%) ([3]; 0% RH, 1st Desorp.): 0.01%
- DVS Sorp. (%) ([3]; 0% RH, 2nd Sorp.): 0.01%
- DVS Desorp. (%) ([3]; 10% RH, 1st Desorp.): 0.95%
- DVS Sorp. (%) ([3]; 10% RH, 2nd Sorp.): 0.65%
- DVS Desorp. (%) ([3]; 20% RH, 1st Desorp.): 1.03%
- DVS Sorp. (%) ([3]; 20% RH, 2nd Sorp.): 0.96%
- DVS Desorp. (%) ([3]; 30% RH, 1st Desorp.): 1.08%
- DVS Sorp. (%) ([3]; 30% RH, 2nd Sorp.): 1.00%
- DVS Desorp. (%) ([3]; 40% RH, 1st Desorp.): 1.14%
- DVS Sorp. (%) ([3]; 40% RH, 1st Sorp.): 1.09%
- DVS Desorp. (%) ([3]; 40% RH, 2nd Desorp.): 1.06%
- DVS Sorp. (%) ([3]; 40% RH, 2nd Sorp.): 1.03%
- DVS Desorp. (%) ([3]; 50% RH, 1st Desorp.): 1.18%
- DVS Sorp. (%) ([3]; 50% RH, 1st Sorp.): 1.10%
- DVS Desorp. (%) ([3]; 50% RH, 2nd Desorp.): 1.11%
- DVS Sorp. (%) ([3]; 50% RH, 2nd Sorp.): 1.06%
- DVS Desorp. (%) ([3]; 60% RH, 1st Desorp.): 1.21%
- DVS Sorp. (%) ([3]; 60% RH, 1st Sorp.): 1.14%
- DVS Desorp. (%) ([3]; 60% RH, 2nd Desorp.): 1.10%
- DVS Sorp. (%) ([3]; 60% RH, 2nd Sorp.): 1.09%
- DVS Desorp. (%) ([3]; 70% RH, 1st Desorp.): 1.26%
- DVS Sorp. (%) ([3]; 70% RH, 1st Sorp.): 1.18%
- DVS Desorp. (%) ([3]; 70% RH, 2nd Desorp.): 1.13%
- DVS Sorp. (%) ([3]; 70% RH, 2nd Sorp.): 1.12%
- DVS Desorp. (%) ([3]; 80% RH, 1st Desorp.): 1.28%
- DVS Sorp. (%) ([3]; 80% RH, 1st Sorp.): 1.22%
- DVS Desorp. (%) ([3]; 80% RH, 2nd Desorp.): 1.18%
- DVS Sorp. (%) ([3]; 80% RH, 2nd Sorp.): 1.17%
- DVS Desorp. (%) ([3]; 90% RH, 1st Desorp.): 1.33%
- DVS Sorp. (%) ([3]; 90% RH, 1st Sorp.): 1.29%
- DVS Desorp. (%) ([3]; 90% RH, 2nd Desorp.): 1.24%
- DVS Sorp. (%) ([3]; 90% RH, 2nd Sorp.): 1.22%
- DVS Desorp. (%) ([3]; 95% RH, 1st Desorp.): 1.38%
- DVS Sorp. (%) ([3]; 95% RH, 1st Sorp.): 1.38%
- DVS Desorp. (%) ([3]; 95% RH, 2nd Desorp.): 1.30%
- DVS Sorp. (%) ([3]; 95% RH, 2nd Sorp.): 1.30%
- Hygroscopicity based on DVS results ([3]; listed as Compound 1, Form B): slightly hygroscopic
- XRPD after DVS test ([3]; listed as Compound 1, Form B): no form change
- XRPD after storage ([4]; 25° C./97% RH for one week): did not result in changes to material as measured by XRPD; also recorded: Unchanged by XRPD
- XRPD after storage ([4]; 40° C./75% RH for one week): did not result in changes to material as measured by XRPD; also recorded: Unchanged by XRPD
- critical water activity between Form A and Form B (Water activity study; 25° C., methanol/water): less than 0.1
- Relative stability of forms (Water activity study; ambient condition): more stable than Form A
- Total drug in solution ([5]; 0.2% HPMC aqueous suspension): <1 µg/mL
- pH ([5]; 0.2% HPMC aqueous suspension): 6.7
- Total drug in solution ([5]; 0.25% SLS aqueous suspension): 7.8 µg/mL
- pH ([5]; 0.25% SLS aqueous suspension): 6.0
- Total drug in solution ([5]; 20% HP-BCD aqueous suspension): 74.2 µg/mL
- pH ([5]; 20% HP-BCD aqueous suspension): 6.1
- Crystallinity (XRPD & PLM) ([6]; 4 weeks, 25° C./60% RH): Crystalline
- Purity ([6]; 4 weeks, 25° C./60% RH): 99.55%
- Weight loss (TGA) (~120° C.) ([6]; 4 weeks, 25° C./60% RH): 2.374%
- Crystallinity (XRPD & PLM) ([6]; 4 weeks, 40° C./75% RH): Crystalline
- Purity ([6]; 4 weeks, 40° C./75% RH): 99.55%
- Weight loss (TGA) (~120° C.) ([6]; 4 weeks, 40° C./75% RH): 2.319%
- Crystallinity (XRPD & PLM) ([6]; 6 weeks, 25° C./60% RH): Crystalline
- Purity ([6]; 6 weeks, 25° C./60% RH): 99.54%
- Water content ([6]; 6 weeks, 25° C./60% RH): 3.361%
- Weight loss (TGA) (~120° C.) ([6]; 6 weeks, 25° C./60% RH): 2.364%
- Crystallinity (XRPD & PLM) ([6]; 6 weeks, 40° C./75% RH): Crystalline
- Purity ([6]; 6 weeks, 40° C./75% RH): 99.53%
- Water content ([6]; 6 weeks, 40° C./75% RH): 3.301%
- Weight loss (TGA) (~120° C.) ([6]; 6 weeks, 40° C./75% RH): 2.276%
- Crystallinity (XRPD & PLM) ([6]; 8 weeks, 25° C./60% RH): Crystalline
- Purity ([6]; 8 weeks, 25° C./60% RH): 99.54%
- Water content ([6]; 8 weeks, 25° C./60% RH): 3.830%
- Weight loss (TGA) (~120° C.) ([6]; 8 weeks, 25° C./60% RH): 2.943%
- Crystallinity (XRPD & PLM) ([6]; 8 weeks, 40° C./75% RH): Crystalline
- Purity ([6]; 8 weeks, 40° C./75% RH): 99.55%
- Water content ([6]; 8 weeks, 40° C./75% RH): 3.494%
- Weight loss (TGA) (~120° C.) ([6]; 8 weeks, 40° C./75% RH): 3.809%
- Crystallinity (XRPD & PLM) ([6]; Initial): Crystalline
- Purity ([6]; Initial): 99.54%
- Water content ([6]; Initial): 3.677%
- Weight loss (TGA) (~120° C.) ([6]; Initial): 2.233%
